Reference: article PMC5290327, “SC83288 is a clinical development candidate for the treatment of severe malaria” (Nature Communications, 2017)
In brackets after ≈: the same amount, converted by molar mass. Read-outs that look alike come from different tables or passages of the source.

What was measured:
P. falciparum strain Dd2 = assay: Growth inhibition assay, asexual blood stages; type: cell-based, Plasmodium falciparum
CACO 2 cells = assay: Permeability assay; type: in vitro ADME; settings: Supplementary Table 2
Description: The study was conducted by Cyprotex (Macclesfield, United Kingdom). CACO 2 cells (Sigma-Aldrich, catalogue: 86010202) were seeded on Millipore Millicell plates and formed a confluent monolayer over 20 days before the experiment. On day 20, the tested compounds at a final concentration of 10 μM were added to the apical side of the membrane. The transport of the compound across the monolayer was monitored over a 2 h period by liquid chromatography (LC)–MS/MS quantification. The permeability coefficient (Papp) was calculated from the following equation: [drawing 1] , where dQ/dt is the rate of permeation of the drug across the cells, C0 the donor compartment concentration at time zero and A the area of the cell monolayer. C0 was obtained from analysis of the dosing solution at the start of the experiment.

Plasmodium berghei = assay: Rodent malaria model; type: in vivo; settings: P. berghei, 50 mg kg-1 i.p. 1x4 days
Description: This was the case for both an in vivo 4 day dosing regimen of 30 mg kg^−1 per day and an ex vivo one-cycle growth inhibition assay. […] Differential therapeutic efficacy in various rodent model systems is a well-established phenomenon and is typically associated with charged compounds, such as positively charged amidines and negatively charged phosphoric acid or carboxylic acid containing drugs. The phenomenon is explained based on selective uptake of charged compounds through parasite-induced channels, termed new permeation pathways, in the host cell plasma membrane and species-specific characteristics of the new permeation pathways.

[1] = In vitro metabolism in liver microsomes; settings: Human
[2] = In vitro metabolism in liver microsomes; settings: Monkey
[3] = In vitro metabolism in liver microsomes; settings: Dog
[4] = In vitro metabolism in liver microsomes; settings: Mouse
[5] = In vitro metabolism in liver microsomes; settings: Rat
Solubility in water = settings: Supplementary Table 2
P. falciparum strain D10 = assay: Growth inhibition assay; type: cell-based; settings: Plasmodium falciparum
P. falciparum strain 3D7 = assay: Growth inhibition assay; type: cell-based; settings: Plasmodium falciparum
[6] = system: P. falciparum strain FCR3; assay: Growth inhibition assay; type: cell-based; settings: Plasmodium falciparum
P. falciparum strain K1 = assay: microbe, parasite or virus in culture; type: cell-based; settings: Plasmodium falciparum
[7] = system: P. falciparum strain Thai19; assay: Growth inhibition assay; type: cell-based; settings: Plasmodium falciparum
P. falciparum strain 7G8 = assay: microbe, parasite or virus in culture; type: cell-based; settings: Plasmodium falciparum
Plasmodium vinckei = assay: Rodent malaria model; type: in vivo; settings: P. vinckei, 30 mg kg-1 i.p. 1x4 days
Text: The two SC compounds were also active in the Plasmodium vinckei rodent malaria model system.

[8] = Supplementary Table 2, read-out: In vitro IC50
[9] = Plasmodium falciparum, DD2, strain Dd2, Supplementary Table 3

In the case of N=C(N)c1cccc(NC(=O)Nc2ccc(S(=O)(=O)NCc3ccccc3)cc2)c1 [SC08165], the IC50 (P. falciparum strain Dd2; [8]) is reported as 134 nM, the Papp (CACO 2 cells) is reported as 1.22 10-6 cm s-1 and the Outcome (Plasmodium berghei) is reported as “inactive”.

In the case of CCCCN1CCN(C(=N)c2cccc(NC(=O)Nc3ccc(S(N)(=O)=O)cc3)c2)CC1 [SC81458 M5], the “Share of metabolite from the total combined metabolite peak area” value (“Share of metabolite” for short) ([1]; SC81458 metabolites) is reported as 51.4%, the “Share of metabolite” value ([2]; SC81458 metabolites) is reported as 0.1% and the “Share of metabolite” value ([3]; SC81458 metabolites) is reported as 3.1%. The “Share of metabolite” value ([4]; SC81458 metabolites) was 49% and the “Share of metabolite” value ([5]; SC81458 metabolites) was 23.3%.

In the case of N=C(c1cccc(NC(=O)Nc2ccc(S(=O)(=O)NCc3ccc(S(N)(=O)=O)cc3)cc2)c1)N1CCN(C=O)CC1 [SC83288 M8], the “Share of metabolite” value ([1]; SC83288 metabolites) is reported as 0.1%, the “Share of metabolite” value ([2]; SC83288 metabolites) is reported as 0.2% and the “Share of metabolite” value ([3]; SC83288 metabolites) is reported as 0.5%. For the same compound, the “Share of metabolite” value ([4]; SC83288 metabolites) was 0.9% and the “Share of metabolite” value ([5]; SC83288 metabolites) was 0.6%.

With CCN(CC)CCN(C)C(=N)c1cccc(NC(=O)Nc2ccc(S(=O)(=O)NCc3ccc(S(N)(=O)=O)cc3)cc2)c1 [SC82869] the IC50 (P. falciparum strain Dd2; [8]) was 89 nM and the “Solubility in H2O” value (Solubility in water) was 320 µg/mL (≈ 520 µM).

In the case of COC(=O)N1CCN(C(=N)c2cccc(NC(=O)Nc3ccc(S(N)(=O)=O)cc3)c2)CC1 [SC83288 M9], the “Share of metabolite” value ([1]; SC83288 metabolites) is reported as 82%, the “Share of metabolite” value ([2]; SC83288 metabolites) is reported as 72.3% and the “Share of metabolite” value ([3]; SC83288 metabolites) is reported as 4.8%. The “Share of metabolite” value ([4]; SC83288 metabolites) was 69.9% and the “Share of metabolite” value ([5]; SC83288 metabolites) was 69%.

In the case of CCN(CC)Cc1cc(Nc2ccnc3cc(Cl)ccc23)ccc1O [Amodiaquin], the IC50 (P. falciparum strain Dd2; [9]) is reported as 7 ± 1 nM, the IC50 (P. falciparum strain D10) is reported as 7 ± 2 nM and the IC50 (P. falciparum strain 3D7) is reported as 8 ± 1 nM. For the same compound, the IC50 [6] was 8 ± 0.4 nM, the IC50 (P. falciparum strain K1) was 9 ± 1 nM and the IC50 [7] was 9 ± 1 nM. The IC50 (P. falciparum strain 7G8) was 7 ± 2 nM.

For CC(C)N1CCN(C(=N)c2cccc(NC(=O)Nc3ccc(S(=O)(=O)NCc4ccc(S(N)(=O)=O)cc4)cc3)c2)CC1 [SC82486], the IC50 (P. falciparum strain Dd2; [8]) was 38 nM, the Papp (CACO 2 cells) was 2.50 10-6 cm s-1 and the “Solubility in H2O” value (Solubility in water) was 100 µg/mL (≈ 163 µM).

Compound OC(c1cc(C(F)(F)F)nc2c(C(F)(F)F)cccc12)C1CCCCN1 (stereo not drawn) [Mefloquine] has an IC50 (P. falciparum strain Dd2; [9]) of 0.04 ± 0.1 nM, an IC50 (P. falciparum strain D10) of 0.01 nM and an IC50 (P. falciparum strain 3D7) of 0.04 ± 0.1 nM. For the same compound, the IC50 [6] was 0.04 nM, the IC50 (P. falciparum strain K1) was 0.01 nM and the IC50 [7] was 0.01 nM. It also gave an IC50 (P. falciparum strain 7G8) of 0.2 ± 0.1 nM.

For C=C[C@H]1C[N@@]2CC[C@H]1C[C@H]2[C@H](O)c1ccnc2ccc(OC)cc12 [Quinine], the IC50 (P. falciparum strain Dd2; [9]) was 100 ± 10 nM, the IC50 (P. falciparum strain D10) was 58 ± 50 nM and the IC50 (P. falciparum strain 3D7) was 14 ± 20 nM. It also gave an IC50 [6] of 182 ± 27 nM, an IC50 (P. falciparum strain K1) of 46 ± 40 nM and an IC50 [7] of 62 ± 10 nM. It also gave an IC50 (P. falciparum strain 7G8) of 70 ± 17 nM.

In the case of CCCCCN1CCN(C(=N)c2cccc(NC(=O)Nc3ccc(S(=O)(=O)NCc4ccc(S(N)(=O)=O)cc4)cc3)c2)CC1 [SC82833], the IC50 (P. falciparum strain Dd2; [8]) is reported as 13 nM and the “Solubility in H2O” value (Solubility in water) is reported as 100 µg/mL (≈ 156 µM).

With CCCN1CCN(C(=N)c2cccc(NC(=O)Nc3ccc(S(=O)(=O)NCc4ccc(S(N)(=O)=O)cc4)cc3)c2)CC1 [SC82367] the IC50 (P. falciparum strain Dd2; [8]) was 7 nM, the Papp (CACO 2 cells) was 5.40 10-6 cm s-1 and the “Solubility in H2O” value (Solubility in water) was greater than 1000 µg/mL.

With N=C(c1cccc(NC(=O)Nc2ccc(S(=O)(=O)NCc3ccc(S(N)(=O)=O)cc3)cc2)c1)N1CCC(O)CC1 [SC77225] the IC50 (P. falciparum strain Dd2; [8]) was 165 nM and the Papp (CACO 2 cells) was 0.38 10-6 cm s-1.

In the case of N=C(c1cccc(NC(=O)Nc2ccc(S(N)(=O)=O)cc2)c1)N1CCNCC1 [metabolite 2], the IC50 (P. falciparum strain Dd2; major metabolite, read-out: IC50, antiplasmodial activity in vitro) is reported as 5000 nM, the “Share of metabolite” value ([1]; SC81458 metabolites) is reported as 4.7% and the “Share of metabolite” value ([1]; SC83288 metabolites) is reported as 0.3%. The “Share of metabolite” value ([2]; SC81458 metabolites) was 7.6%, the “Share of metabolite” value ([2]; SC83288 metabolites) was 5.4% and the “Share of metabolite” value ([3]; SC81458 metabolites) was 1.6%. The “Share of metabolite” value ([5]; SC81458 metabolites) was 0.3% and the “Share of metabolite” value ([5]; SC83288 metabolites) was 0.3%.

For CCCCC(=O)N1CCN(C(=N)c2cccc(NC(=O)Nc3ccc(S(=O)(=O)NCc4ccc(S(N)(=O)=O)cc4)cc3)c2)CC1 [SC83290], the IC50 (P. falciparum strain Dd2; [8]) was 40 nM, the Outcome (Plasmodium vinckei) was “no complete clearance” and the “Outcome: decrease of parasitemia” value (Plasmodium vinckei) was greater than 90%. The “Solubility in H2O” value (Solubility in water) was greater than 1000 µg/mL.

For CCc1nc(N)nc(N)c1-c1ccc(Cl)cc1 [Pyrimethamine], the IC50 (P. falciparum strain D10) was 11 ± 2 nM, the IC50 (P. falciparum strain 3D7) was 16 ± 3 nM and the IC50 [6] was 31 ± 8 nM. The IC50 (P. falciparum strain K1) was greater than 15000 nM, the IC50 [7] was greater than 15000 nM and the IC50 (P. falciparum strain 7G8) was greater than 15000 nM.
